Assay [1] deals with P. aeruginosa strain PA M57-15. As to the kind of experiment: MIC and MBC determination, standard CLSI protocol with minor modifications. It counts as cell-based, Pseudomonas aeruginosa. The protocol: Pseudomonas aeruginosa isolate PA M57-15 was generously donated by Thomas Ferkol, M.D. (Washington University, St. Louis, MO). PA M57-15 was struck from frozen glycerol stocks on to tryptic soy agar plates (Remel) and incubated overnight at 37 °C in a warm room until individual colonies formed. A single colony was inoculated in 10 mL Mueller-Hinton (MH) broth, grown in a shaking incubator (37 °C, 200 rpm) to log phase (OD650 = 0.4), and utilized for experiments after appropriate dilutions. PA M57-15 bacterial suspension at OD650 = 0.4 corresponds to 2–3 × 10^8 CFU/mL, as verified by repeated serial dilution and plating.
The MIC and MBC determinations of the various SCCs and the Ag-PPE-SCK NPs were performed using a standard CLSI protocol with minor modifications. A mucoid clinical isolate of Pseudomonas aeruginosa, PA M57-15, from a cystic fibrosis patient was utilized, because we have previously studied this strain in murine models of P. aeruginosa lung infection[21],[29],[30]. PA M57-15 grown to log phase as previously described was diluted to a density of 10^6 CFU/mL in MH and added 1:1 in a 96-well plate with different concentrations of SCCs dissolved in 95:5 (v:v) DH2O:DMSO solution or the Ag-PPE-SCKs suspended in DH2O. The final SCC concentrations tested were 0.25, 0.5, 0.75, 1, 1.5, and 2 μg/mL and were increased in two-fold increments from 2 μg/mL to 32 μg/mL. The final DMSO concentrations in the wells was 2.5% (v/v) and had no impact on bacterial growth, as determined by growth in the positive control wells. […] Contents of these clear wells were streaked on agar plates and incubated for an additional 24 hours at 37 °C. […] Three technical replicates were employed for each experiment and a total of three biological replicates were performed on separate days (3 technical replicates x 3 biological replicates = 9 total replicates) to account for day-to-day variations in media, bacterial growth, compound dilutions, as well as other experimental conditions. The MIC and MBC values that were identical for at least two readings out of the three are reported.

The test system of assay [2] is Pseudomonas aeruginosa (PA M57-15). As to the kind of experiment: Murine P. aeruginosa acute lung infection model, nebulized treatment. The assay is classed as in vivo, mouse. The settings on record: for survival: 25 µmol Ag+ per dose nebulized, 5 doses, sham 9.1%; for survival / survival compared with sham treatment: 90:10 DH2O:DMSO, head-to-head of four SCCs; for clinical illness score (signs of illness): 25 µmol per dose nebulized with DMSO, SCC1 and SCC22: at 24 hours following infection, scorers not blinded; for survival compared with sham treatment: 25 µmol per dose nebulized. The protocol:
Weight-matched male C57BL/6 J mice aged 6–8 weeks were used for all acute lung infection studies, which were approved by the University of Texas Southwestern Medical Center Institutional Animal Care and Use Committee (IACUC). All experiments were performed in accordance with relevant guidelines and regulations. Animals were housed in a barrier facility under pathogen-free conditions until they were inoculated with bacteria. The previously described clinical mucoid strain of Pseudomonas aeruginosa (PA M57-15) grown to mid-log phase (OD650 = 0.4) in Luria broth (LB) was used for all pulmonary infection experiments. The density of the bacterial culture (CFU/mL) was determined using serial dilution and plating for each experiment.
Mice were anesthetized by intraperitoneal administration of a ketamine (60 mg/kg) and xylazine (8 mg/kg) cocktail, intranasally inoculated using 75 µL of the bacterial inoculum (~1 × 10^6 CFU per mouse), and assigned randomly into treatment groups. Treatment was administered at 1-hour post-inoculation and again every 12 hours thereafter up to a 5th dose at 49 hours via nebulization of 5 mL of SCC solutions (containing 25 µmol total Ag^+ cation per dose for each SCC) or sham treatment. For the head-to-head comparison of unencapsulated SCC1, SCC22, SCC23, and SCC28, all SCCs were dissolved in a 90:10 (v/v) mixture of DH2O and DMSO; whereas, the sham treatment consisted of 90:10 DH2O: DMSO, but with dilute phosphate buffer (1 mM Na2HPO4, 0.2 mM KH2PO4) incorporated to provide tonicity for nebulization. For the dose-response studies with unencapsulated SCC1 and SCC22, 5 mL of SCCs dissolved in DH2O alone or 90:10 (v/v) mixture of DH2O and DMSO was nebulized to provide a total dose of 25, 50, or 100 µmol Ag^+ cation per dose for each SCC. Nebulization of the SCCs was achieved using a previously described experimental setup comprising of an Aeroneb Lab apparatus connected to a multi-dosing chamber. Throughout each study, the mice were monitored constantly and times of death were recorded. Every 24 hours, the mice were weighed and assigned cumulative clinical illness scores (0–6) based on their resting posture (0–2), condition of their fur (0–1), and overall activity level (0–3), with higher scores indicating more severe illness. The investigators assigning the scores were not blinded to the treatment group, which is a limitation of this study. The survival studies were all performed in duplicate with results pooled.
In vivo efficacy testing of the silver loaded, polyphosphoester, shell-crosslinked, knedel-like nanoparticles (Ag-PPE-SCKs) was carried out in a similar manner as with the SCCs. Ag-PPE-SCKs were suspended in 5 mL DH2O to a concentration of ~5 mM silver, as previously determined by mass spectrometry, and empty PPE-SCKs were suspended corresponding to the same mass of polymer. SCC1, a comparator treatment, was similarly dissolved to 5 mM in 5 mL DH2O, and sham consisted of the DH2O:phosphate buffer solution used in the other studies. The infection model was carried out as before; however, the Ag-PPE-SCKs and PPE-SCKs were dosed at 1 and 25 hours post-infection with the nanoparticles and given sham treatment at 13, 37, and 49 hours. SCC1 and sham treatment groups were dosed at all five time points. Survival studies were performed twice and pooled, though SCC1 was only used in one of the survival studies.

Where [3] appears, read: 100 µmol, DMSO-free formulation.

Values joined by “and” are separate entries in the source; they are usually repeats but may differ in a detail not shown here. Equal entries are not always repeated.

A word on the MBC: it is the smallest concentration meeting the test's criterion for killing. Low values mean more potent killing, high ones less potent killing. By MIC is commonly meant the smallest concentration in the dilution series that meets the test's criterion for growth inhibition. A low value points to greater potency.

On to `CC(=O)[O][Ag][c]1n(C)c2c(c(=O)n(C)c(=O)n2C)[n+]1C` [SCC1], for which the MBC is 1.5 µg/mL in assay [1] (PA M57-15); 4.0 µM and 4 µM in assay [1] (PA M57-15, molar basis). In addition, the MIC was 0.75 µg/mL in assay [1] (PA M57-15); 2.0 µM and 2 µM in assay [1] (PA M57-15, molar basis). Moreover, in assay [2], the survival is listed as 25%. For the same compound, in assay [2], the “clinical illness score (signs of illness)” value (“clinical illness score” below) is listed as “significantly lower signs of illness”. Also, the “survival advantage compared with sham treatment” value in assay [2] (25 µmol, DMSO-free formulation) is given as 58%; in assay [2] (25 µmol, with DMSO), 42%; in assay [2] (50 µmol, DMSO-free formulation), 64%; in assay [2] (setting [3]), 73%; in assay [2] (100 µmol, with DMSO) it was 17%; in assay [2] (~5 mM silver in 5 mL DH2O nebulized, Ag-PPE-SCKs dosed at 1 and 25 h, SCC1 at all five time points), 50%.

For `CC(=O)[O][Ag][c]1n(Cc2ccc3ccccc3c2)c(Cl)c(Cl)[n+]1Cc1ccc2ccccc2c1` [SCC23], in assay [1] (PA M57-15), the minimum bactericidal concentration (MBC) amounted to 1.0 µg/mL and the MIC is 0.50 µg/mL. In assay [1] (PA M57-15, molar basis), this compound had a minimal bactericidal concentration (MBC) of 1.7 µM and an MIC of 0.86 µM. Besides, in assay [2], the “clinical illness score” value is on record as “appeared the most infirm at each time-point” and the “survival compared with sham treatment” value is on record as “significantly lower survival”.

As to `CC(=O)[O][Ag][c]1n(CCCO)c(Cl)c(Cl)[n+]1C` [SCC22], the MBC in assay [1] (PA M57-15) stood at 1.0 µg/mL; in assay [1] (PA M57-15, molar basis), 2.7 µM. Further, the minimal inhibitory concentration (MIC) in assay [1] (PA M57-15) is 0.75 µg/mL; in assay [1] (PA M57-15, molar basis), 2.0 µM and 2 µM. In addition, the survival in assay [2] is reported as 42%. Moreover, the “clinical illness score” value in assay [2] is reported as “significantly lower signs of illness”. Further, the “survival advantage compared with sham treatment” value in assay [2] (25 µmol, DMSO-free formulation) is recorded as 25%; in assay [2] (25 µmol, with DMSO), 58%; in assay [2] (50 µmol, DMSO-free formulation), 67%; in assay [2] (50 µmol, with DMSO) it was 50%; in assay [2] (setting [3]) it was 67%; in assay [2] (100 µmol, with DMSO) it was “did not yield any survival advantage”.

In the case of `CCCCCCn1c(Cl)c(Cl)[n+](Cc2ccc3ccccc3c2)[c]1[Ag][O]C(C)=O` [SCC28], in assay [1] (PA M57-15), the minimum bactericidal concentration (MBC) was 1.0 µg/mL and the minimum inhibitory concentration (MIC) is 0.50 µg/mL. In addition, in assay [1] (PA M57-15, molar basis), the MBC is on record as 1.9 µM and the minimal inhibitory concentration (MIC) turned out to be 0.95 µM. In addition, in assay [2], the “survival compared with sham treatment” value was “significantly lower survival”.

The values above are taken from publication PMC5913254, “A novel in vitro metric predicts in vivo efficacy of inhaled silver-based antimicrobials in a murine Pseudomonas aeruginosa pneumonia model” (Scientific Reports, 2018).
